Results on 4 molecules are retold here after patent publication US4374144A, “β-Lactam compounds, their preparation and use” (Beecham Group Limited, priority 1978, dated 1983).

In assay [1] the test system is Bacillus subtilis A. The assay can be described thus: MIC, DST agar + 10% horse blood. The format is cell-based. The protocol:
(§1) The minimum inhibitory concentrations (MIC) of certain compounds of the invention were determined against a range of organisms.
(§2) of 0.001 ml of a 10^-2 dilution for Grampositive bacteria or a
(§3) 10^-4 dilution for Gramnegative bacteria).

For assay [2], the system named is Citrobacter freundii E8. The assay can be described thus: MIC, DST agar + 10% horse blood. The format is cell-based. The protocol: as §1, §2, §3
Assay [3] concerns E. coli 0111. The assay can be described thus: MIC, DST agar + 10% horse blood. As to conditions: Escherichia coli. In kind it is cell-based. The protocol: as §1, §2, §3
Assay [4] has as its system E. coli JT39. The assay can be described thus: MIC, DST agar + 10% horse blood. The format is cell-based. As to conditions: Escherichia coli. As for the experimental part: as §1, §2, §3
The test system of assay [5] is Klebsiella aerogenes A. The assay can be described thus: MIC, DST agar + 10% horse blood. The format is cell-based. As for the experimental part:
as §1, §2, §3

The test system of assay [6] is Proteus mirabilis C977. The assay can be described thus: MIC, DST agar + 10% horse blood. The format is cell-based. The protocol:
as §1, §2, §3

In assay [7] the test system is Salmonella typhimurium CT10. The assay can be described thus: MIC, DST agar + 10% horse blood. The format is cell-based. The settings on record: Salmonella enterica. The protocol:
as §1, §2, §3

Assay [8] concerns Shigella sonnei MB11967. The assay can be described thus: MIC, DST agar + 10% horse blood. In kind it is cell-based. As for the experimental part:
as §1, §2, §3

Assay [9] has as its system Staph. aureus Oxford. The assay can be described thus: MIC, DST agar + 10% horse blood. In kind it is cell-based. The settings on record: Staphylococcus aureus. The protocol:
as §1, §2, §3

The subject of assay [10] is Staph. aureus Russell. The assay can be described thus: MIC, DST agar + 10% horse blood. The format is cell-based. As to conditions: Staphylococcus aureus. The protocol: as §1, §2, §3
The subject of assay [11] is Streptococcus pyogenes CN10. The assay can be described thus: MIC, DST agar + 10% horse blood. In kind it is cell-based. The protocol: as §1, §2, §3
For assay [12], the target named is T1, β-Lactamase from Enterobacter cloacae P99 (Enterobacter cloacae, UniProt P05364).
T1 construct: β-Lactamase from; endogenous in cells; host or cells: Enterobacter cloacae P99
The assay can be described thus: β-Lactamase inhibition, chromogenic cephalosporin substrate. As to conditions: 5 min preincubation, pH 7.3, 37° C., read-out: I50 (converted). In kind it is biochemical. As for the experimental part: (§4) I50 values for certain compounds of the invention against various β-lactamases were determined as follows:
(§5) Enzyme (0.2 ml) and inhibitor solution (10 μl) were incubated at pH 7.3, 37° C. for 5 minutes. Substrate (0.2 ml), which was the chromogenic cephalosporin described by O'Callaghan, Morris, Kirby and Shingler, Antimicrobial Agents and Chemotherapy, vol. 1, no. 4, 283-288 (1972), was added to give a final concentration of 250 μg/ml. After a further five minutes (37° C. at pH 7.3) the reaction was diluted with 1.6 ml of water and absorbance at 482 nm recorded instantly. The enzyme level was sufficient to hydrolyse 75% of the substrate in 5 minutes. Levels of inhibition were measured against a control reaction with no added inhibitor (10 μl buffer). I50 values quoted are the concentrations required to give 50% inhibition of substrate hydrolysis under the conditions described and are the concentrations of inhibitor present with the enzyme prior to the addition of the substrate.

The target of assay [13] is T2, β-Lactamase from Staphylococcus aureus Russell (Staphylococcus aureus, UniProt P00807).
T2 construct: β-Lactamase from; endogenous in cells; host or cells: Staphylococcus aureus Russell
The description is as above. In kind it is biochemical. The settings on record: 5 min preincubation, pH 7.3, 37° C., read-out: I50 (converted). The protocol:
as §4, §5

In assay [14] the target is T3, β-Lactamase from E. coli JT4 (Escherichia coli, UniProt P62593).
T3 construct: β-Lactamase from; endogenous in cells; host or cells: E. coli JT4
The description is as above. In kind it is biochemical. As to conditions: 5 min preincubation, pH 7.3, 37° C., read-out: I50 (converted). As for the experimental part: as §4
(§6) Enzyme (0.2 ml) and inhibitor solution (10 μl) were incubated at pH 7.3, 37° C. for 5 minutes. Substrate (0.2 ml), which was the chromogenic cephalosporin described by O'Callaghan, Morris, Kirby and Shingler, Antimicrobial Agents and Chemotherapy, vol. 1, no. […] After a further five minutes (37° C. at pH 7.3) the reaction was diluted with 1.6 ml of water and absorbance at 482 nm recorded instantly. […] Levels of inhibition were measured against a control reaction with no added inhibitor (10 μl buffer).

Assay [15] deals with β-Lactamase from Klebsiella aerogenes E70. The description is as above. In kind it is biochemical. The settings on record: 5 min preincubation, pH 7.3, 37° C. The protocol: as §4, §6
The mark [16] stands for this setting: E. coli 0111, inoculum 0.001 ml of 10^-4 dilution, read-out: MIC.
Where [17] appears, read: E. coli JT39, inoculum 0.001 ml of 10^-4 dilution, read-out: MIC.
Setting [18] is: Shigella sonnei MB11967, inoculum 0.001 ml of 10^-4 dilution, read-out: MIC.
The mark [19] stands for this setting: Citrobacter freundii E8, inoculum 0.001 ml of 10^-4 dilution, read-out: MIC.
[20] abbreviates: Klebsiella aerogenes A, inoculum 0.001 ml of 10^-4 dilution, read-out: MIC.
The mark [21] stands for this setting: Proteus mirabilis C977, inoculum 0.001 ml of 10^-4 dilution, read-out: MIC.
The mark [22] stands for this setting: Salmonella typhimurium CT10, inoculum 0.001 ml of 10^-4 dilution, read-out: MIC.
The mark [23] stands for this setting: Staph. aureus Oxford, inoculum 0.001 ml of 10^-2 dilution, read-out: MIC.
The mark [24] stands for this setting: Staph. aureus Russell, inoculum 0.001 ml of 10^-2 dilution, read-out: MIC.
Setting [25] is: Streptococcus pyogenes CN10, inoculum 0.001 ml of 10^-2 dilution, read-out: MIC.

Like-named read-outs stand apart in the source and are kept apart here. A value given as a limit tells only on which side of the number the result lay.

One may read the MIC as the lowest concentration found to suppress growth.

T1 sequence (P05364 21-381): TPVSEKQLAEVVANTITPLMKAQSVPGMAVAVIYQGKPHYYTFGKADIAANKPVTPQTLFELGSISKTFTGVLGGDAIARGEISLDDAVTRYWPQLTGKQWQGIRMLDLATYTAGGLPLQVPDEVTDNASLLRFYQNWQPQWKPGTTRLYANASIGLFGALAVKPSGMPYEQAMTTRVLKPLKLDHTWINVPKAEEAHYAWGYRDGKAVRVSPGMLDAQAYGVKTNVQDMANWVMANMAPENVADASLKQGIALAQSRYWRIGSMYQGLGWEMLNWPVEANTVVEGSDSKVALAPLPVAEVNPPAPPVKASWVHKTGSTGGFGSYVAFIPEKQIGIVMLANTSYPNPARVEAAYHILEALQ
T2 sequence (P00807 25-281): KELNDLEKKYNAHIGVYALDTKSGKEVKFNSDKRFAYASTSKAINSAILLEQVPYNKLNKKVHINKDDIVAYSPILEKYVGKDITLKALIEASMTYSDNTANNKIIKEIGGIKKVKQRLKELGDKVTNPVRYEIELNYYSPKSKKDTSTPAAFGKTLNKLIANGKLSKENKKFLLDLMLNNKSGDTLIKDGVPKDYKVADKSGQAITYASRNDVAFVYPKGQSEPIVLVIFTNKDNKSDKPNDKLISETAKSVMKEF
T3 sequence (P62593 24-286 limits assumed): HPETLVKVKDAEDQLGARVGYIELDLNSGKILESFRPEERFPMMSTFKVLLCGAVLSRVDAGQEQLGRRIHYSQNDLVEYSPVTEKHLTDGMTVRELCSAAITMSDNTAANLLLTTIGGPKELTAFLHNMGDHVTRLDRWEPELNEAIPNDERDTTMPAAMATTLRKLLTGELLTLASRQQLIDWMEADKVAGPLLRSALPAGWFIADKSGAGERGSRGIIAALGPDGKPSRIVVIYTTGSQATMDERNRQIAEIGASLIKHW

As for `CC(=O)N/C=C\SC1=C(C(=O)[O-])N2C(=O)[C@@H]([C@H](C)O)[C@H]2C1.[Na+]` [Example 5, Sodium (5R, 6R)-3-[(Z)-2-acetamidoethenylthio]-6-[(S)-1-hydroxyethyl]-7-oxo-1-azabicyclo[3.2.0]hept-2-ene-2-carboxylate], the minimal inhibitory concentration (MIC) in assay [1] (Bacillus subtilis) worked out at 0.1 µg/mL; in assay [2] (Citrobacter freundii, E8) it was 1 µg/mL; in assay [3] (setting [16]), 1 µg/mL; in assay [4] (setting [17]) it was 10 µg/mL; in assay [5] (Klebsiella aerogenes), 1 µg/mL; in [6] (Proteus mirabilis, C977) it was 1 µg/mL. For the same molecule, the MIC is 1 µg/mL in assay [7] (TYPHIMURIUM); 1 µg/mL in assay [8] (setting [18]); 0.2 µg/mL in assay [9]; 0.5 µg/mL in assay [10]; ≤ 0.02 µg/mL in assay [11] (Streptococcus pyogenes, CN10).

Turning to `CC(=O)N/C=C\SC1=C(C(=O)[O-])N2C(=O)[C@H]([C@H](C)O)[C@H]2C1.[Na+]`, the minimal inhibitory concentration (MIC) in assay [1] (Bacillus subtilis) worked out at 5 µg/mL; in assay [2] (Citrobacter freundii, E8) it was 2.5 µg/mL; in [3] (0111) it was 5 µg/mL; in [4] (JT39), 10 µg/mL; in [5] (Klebsiella aerogenes) it was 5 µg/mL; in [6] (Proteus mirabilis, C977) it was 25 µg/mL. Besides, the MIC in assay [7] (TYPHIMURIUM) came to 5 µg/mL; in assay [8] (Shigella sonnei, MB11967), 10 µg/mL; in assay [9], 0.5 µg/mL; in [10], 0.5 µg/mL; in [11] (Streptococcus pyogenes, CN10) it was 0.5 µg/mL. The figures for the IC50 in assay [12], in assay [13] and in [14] were 17.9 nM, ~8970 nM and 150 nM, respectively. This molecule also displayed an I50 in assay [15] of 0.1 µg/mL.

For `CC(=O)N/C=C\SC1=C(C(=O)OCc2ccc([N+](=O)[O-])cc2)N2C(=O)[C@H]([C@H](C)O)[C@H]2C1` [Example 2, p-Nitrobenzyl (5R, 6S)-3-[(Z)-2-acetamidoethenylthio]-6-[(S)-1-hydroxyethyl]-7-oxo-1-azabicyclo[3.2.0]hept-2-ene-2-carboxylate], the MIC was 0.5 µg/mL in assay [1] (Bacillus subtilis); 5 µg/mL in [2] (setting [19]); 2.5 µg/mL in assay [3] (setting [16]); > 50 µg/mL in assay [4] (setting [17]); 2.5 µg/mL in [5] (setting [20]); 5 µg/mL in assay [6] (setting [21]). Moreover, the minimum inhibitory concentration (MIC) in assay [7] (setting [22]) was 2.5 µg/mL; in [8] (setting [18]) it was 2.5 µg/mL; in assay [9] (setting [23]), 0.5 µg/mL; in assay [10] (setting [24]), 1.2 µg/mL; in assay [11] (setting [25]) it was ≤ 0.1 µg/mL.

Take `CC(=O)N/C=C\SC1=C(C(=O)O)N2C(=O)[C@@H]([C@H](C)OS(=O)(=O)O)[C@H]2C1` [Example 8, Disodium (5R, 6R)-3-[(Z)-2-acetamidoethenylthio]-6-[(S)-1-sulphatoethyl]-7-oxo-1-azabcicyclo[3.2.0]hept-2-ene-2-carboxylate]: the MIC in assay [1] (Bacillus subtilis A, inoculum 0.001 ml of 10^-2 dilution, read-out: MIC) turned out to be 1.2 µg/mL; in assay [2] (setting [19]), 1.2 µg/mL; in assay [3] (setting [16]), 1.2 µg/mL; in assay [4] (setting [17]), 2.5 µg/mL; in [5] (setting [20]), 0.5 µg/mL; in assay [6] (setting [21]) it was 1.2 µg/mL. In addition, the MIC in [7] (setting [22]) was 1.2 µg/mL; in [8] (setting [18]) it was 1.2 µg/mL; in [9] (setting [23]) it was 1.2 µg/mL; in [10] (setting [24]), 1.2 µg/mL; in [11] (setting [25]) it was 0.2 µg/mL. The IC50 in [12] was 7.65 nM; in [13], 637 nM.
